The numbers were not newly measured in patent US20080175905A1, “ESTROGEN/SERM AND ESTROGEN/PROGESTIN BI-LAYER TABLETS” (Wyeth, priority 2006, published 2008), which cites them from elsewhere.

Data set [1] concerns MCF-7 cell line (human breast cancer cell line). The settings on record: MCF-7 human breast cancer cell line.
The subject of data set [2] is ovariectomized rat model of osteopenia.
In a further data set the test system is uterine response. The settings on record: preclinical models of uterine stimulation.

In the case of `Cc1c(-c2ccc(O)cc2)n(Cc2ccc(OCCN3CCCCCC3)cc2)c2ccc(O)cc12` [bazedoxifene acetate, 1-[4-(2-azepan-1-yl-ethoxy)-benzyl]-2-(4-hydroxy-phenyl)-3-methyl-1H-indol-5-ol acetic acid], the “estrogen antagonist behaviour in MCF-7 cell line” value in data set [1] is “behaves as an estrogen antagonist”. Further, in data set [2], the preventing bone loss entry is reported as “estrogen agonist-like effect” and the reducing cholesterol result is reported as “estrogen agonist-like effect”. In addition, the “stimulation of uterine response” value in the data set with uterine response is reported as “little or no stimulation of uterine response”.
